Test results: patent US12642270B2, “Substituted thiophene carboxamides, thiophene carboxylic acids and derivatives thereof” (Bayer Aktiengesellschaft, priority 2019, dated 2026)

Test: Log P by HPLC on reversed phase columns (EEC directive 79/831 Annex V.A8)
Assay type: physicochemical
Settings: method marked [a]
Method in brief: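 Values come from retention times calibrated against alkan-2-ones (3–16 carbons) by linear interpolation, using reversed-phase LC-UV per EEC directive 79/831 Annex V.A8. Acetonitrile gradient 10–95% with 0.1% formic acid [a], 0.001 M ammonium acetate [b] or 0.1% phosphoric acid [c]; several values within one method separated by "+".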

SMILES	LogP
CCOC(=O)C(NC(=O)c1sc(Cl)c(Br)c1C)C(=O)OCC [1.0270]	3.87^[a]
CCOC(=O)C1(NC(=O)c2sc(Cl)c(Br)c2C)CN(C(=O)OC(C)(C)C)C1 [1.0271]	4.23^[a]
CCOC(=O)C(NC(=O)c1sc(Br)c(Cl)c1C)C1CC1 (stereo not drawn) [1.0272]	3.77^[a]
COC(=O)C(NC(=O)c1sc(Br)c(Cl)c1C)C(=O)OC [1.0273]	3.04^[a]
CCOC(=O)C(CC1CC1)NC(=O)c1sc(Br)c(Cl)c1C (stereo not drawn) [1.0274]	4.26^[a]
COC(=O)C(NC(=O)c1sc(Br)c(Cl)c1C)(C1CC1)C1CC1 [1.0275]	3.94^[a]
CCOC(=O)C(NC(=O)c1sc(Br)c(Cl)c1C)C(=O)OCC [1.0276]	3.84^[a]
CCOC(=O)C1(NC(=O)c2sc(Br)c(Cl)c2C)CN(C(=O)OC(C)(C)C)C1 [1.0277]	4.19^[a]
COC(=O)[C@H](CCCNC(=N)N)NC(=O)c1sc(Br)c(Br)c1F [1.0278]	1.66^[a]
CCOC(=O)C(CC(C)C)NC(=O)c1sc(Cl)c(Cl)c1C#N (stereo not drawn) [1.0279]	4.05^[a]
CCOC(=O)C(NC(=O)c1sc(Cl)c(Cl)c1C#N)C(C)C (stereo not drawn) [1.0280]	3.77^[a]
COC(=O)C1(NC(=O)c2cc(Br)c(C#N)s2)CC1 [1.0281]	2.10^[a]
N#Cc1sc(C(=O)NC2(C(=O)O)CC2)cc1Br [1.0282]	1.70^[a]
COC(=O)C1(NC(=O)c2sc(C#N)c(Cl)c2C)CC1 [1.0283]	2.21^[a]
O=C(NC(C(=O)O)C1CC1)c1cc(Cl)c(Br)s1 (stereo not drawn) [1.0284]	2.41^[a]
O=C(NC(C(=O)O)C1CC1)c1cc(Br)c(Cl)s1 (stereo not drawn) [1.0285]	2.44^[a]
Cc1c(C(=O)NC(C(=O)O)C2CC2)sc(C#N)c1Br (stereo not drawn) [1.0286]	2.19^[a]
O=C(NC(C(=O)O)C1CC1)c1sc(Cl)c(Cl)c1Br (stereo not drawn) [1.0287]	2.95^[a]
O=C(NC(C(=O)NC(C(=O)O)C1CC1)C1CC1)c1cc(Br)c(Cl)s1 (stereo not drawn) [1.0288]	2.49^[a]
O=C(NC(C(=O)NC(C(=O)O)C1CC1)C1CC1)c1sc(Cl)c(Cl)c1Br (stereo not drawn) [1.0289]	2.97^[a]
COC(=O)C1(NC(=S)c2sc(C#N)c(Cl)c2C)CC1 [1.0290]	3.04^[a]
Cc1c(C(=O)NC2(C(=O)O)CC2)sc(C#N)c1Cl [1.0291]	1.79^[a]
O=C(NC(C(=O)O)C1CC1)c1sc(Br)c(Br)c1I (stereo not drawn) [1.0292]	2.97^[a]
O=C(NC(C(=O)O)C1CC1)c1sc(Br)c(Br)c1Cl (stereo not drawn) [1.0293]	2.94^[a]
O=C(NC(C(=O)O)C1CC1)c1sc(Br)c(Br)c1F (stereo not drawn) [1.0294]	2.64^[a]

SMILES	LogP
COC(=O)CNC(=O)c1cc(Br)c(F)s1 [1.0295]	2.01^[a]
COC(=O)CNC(=O)c1sc(F)c(Cl)c1C [1.0296]	2.23^[a]
CCOC(=O)CNC(=O)c1sc(F)c(Cl)c1C [1.0297]	2.59^[a]
CCOC(=O)C1(NC(=O)c2sc(F)c(Cl)c2C)CC1 [1.0298]	2.77^[a]
CCOC(=O)C(NC(=O)c1sc(F)c(Cl)c1C)C(C)C (stereo not drawn) [1.0299]	3.87^[a]
CCOC(=O)C(CCSC)NC(=O)c1sc(F)c(Cl)c1C (stereo not drawn) [1.0300]	3.64^[a]
CCOC(=O)C(Cc1ccccc1)NC(=O)c1sc(F)c(Cl)c1C (stereo not drawn) [1.0301]	4.15^[a]
COC(=O)CNC(=O)c1sc(C#N)c(Cl)c1C [1.0302]	2.03^[a]
CCOC(=O)CNC(=O)c1sc(C#N)c(Cl)c1C [1.0303]	2.39^[a]
CCOC(=O)C(NC(=O)c1sc(C#N)c(Cl)c1C)C(C)C (stereo not drawn) [1.0304]	3.47^[a]
CCOC(=O)C(CCSC)NC(=O)c1sc(C#N)c(Cl)c1C (stereo not drawn) [1.0305]	3.28^[a]
CCOC(=O)C(Cc1ccccc1)NC(=O)c1sc(C#N)c(Cl)c1C (stereo not drawn) [1.0306]	3.77^[a]
COC(=O)CNC(=O)c1cc(F)c(Cl)s1 [1.0307]	1.94^[a]
CCOC(=O)C1(NC(=O)c2cc(F)c(Cl)s2)CC1 [1.0308]	2.49^[a]
CCOC(=O)C(NC(=O)c1cc(F)c(Cl)s1)C(C)C (stereo not drawn) [1.0309]	3.44^[a]
CCOC(=O)C(CCSC)NC(=O)c1cc(F)c(Cl)s1 (stereo not drawn) [1.0310]	3.25^[a]
CCOC(=O)CNC(=O)c1cc(Br)c(F)s1 [1.0311]	2.33^[a]
CCOC(=O)C1(NC(=O)c2cc(Br)c(F)s2)CC1 [1.0312]	2.57^[a]
CCOC(=O)C(NC(=O)c1cc(Br)c(F)s1)C(C)C (stereo not drawn) [1.0313]	3.54^[a]
CCOC(=O)C(CCSC)NC(=O)c1cc(Br)c(F)s1 (stereo not drawn) [1.0314]	3.31^[a]
CCOC(=O)C(Cc1ccccc1)NC(=O)c1cc(Br)c(F)s1 (stereo not drawn) [1.0315]	3.77^[a]
COC(=O)CNC(=O)c1sc(F)c(Br)c1C [1.0316]	2.31^[a]
CCOC(=O)CNC(=O)c1sc(F)c(Br)c1C [1.0317]	2.67^[a]
CCOC(=O)C1(NC(=O)c2sc(F)c(Br)c2C)CC1 [1.0318]	2.83^[a]
CCOC(=O)C(NC(=O)c1sc(F)c(Br)c1C)C(C)C (stereo not drawn) [1.0319]	3.94^[a]

SMILES	LogP
CCOC(=O)C(CCSC)NC(=O)c1sc(F)c(Br)c1C (stereo not drawn) [1.0320]	3.67^[a]
CCOC(=O)C(Cc1ccccc1)NC(=O)c1sc(F)c(Br)c1C (stereo not drawn) [1.0321]	4.23^[a]
CCOC(=O)C1(NC(=S)c2sc(Cl)c(Cl)c2Br)CC1 [1.0323]	4.51^[a]
O=C(NC1(C(=O)O)CC1)c1sc(Cl)c(Br)c1Cl [1.0324]	2.41^[a]
CCOC(=O)C1(NC(=S)c2sc(Cl)c(Br)c2Cl)CC1 [1.0325]	4.55^[a]
CCOC(=O)CN(OC)C(=O)c1sc(Br)c(Br)c1F [1.0327]	3.37^[a]
COC(=O)C1(NC(=S)c2sc(Br)c(Br)c2F)CC1 [1.0328]	3.91^[a]
O=C(O)C1(NC(=S)c2sc(Br)c(Br)c2F)CC1 [1.0329]	2.95^[a]
COC(=O)[C@H](CCC(=O)O)NC(=O)c1sc(Br)c(Br)c1F [1.0330]	2.36^[a]
CCOC(=O)C1(NC(=S)c2sc(Br)c(Br)c2F)CCC1 [1.0331]	4.74^[a]
COC(=O)C1(NC(=S)c2sc(Cl)c(Br)c2C)CC1 [1.0332]	3.71^[a]
COC(=O)C1(NC(=S)c2sc(Br)c(Br)c2Cl)CC1 [1.0333]	4.11^[a]
COC(=O)C1(NC(=S)c2sc(Cl)c(Cl)c2Br)CC1 [1.0334]	4.06^[a]
COC(=O)C1(NC(=S)c2sc(C#N)c(Br)c2C)CC1 [1.0335]	3.10^[a]
COC(=O)C1(NC(=S)c2cc(Br)c(C#N)s2)CC1 [1.0336]	3.03^[a]
O=C(NC(CC(F)F)C(=O)O)c1sc(Cl)c(Cl)c1Br (stereo not drawn) [1.0337]	2.81^[a]
CCOC(=O)C1(NC(=O)c2sc(Br)c(Br)c2C(F)F)CC1 [1.0341]	3.20^[a]
N#CCNC(=O)c1sc(Cl)c(Cl)c1F [1.0342]	2.30^[a]
COC(=O)CNC(=O)c1sc(Cl)c(Cl)c1F [1.0343]	2.43^[a]
CCOC(=O)CNC(=O)c1sc(Cl)c(Cl)c1F [1.0344]	2.83^[a]
CCOC(=O)C(C)NC(=O)c1sc(Cl)c(Cl)c1F (stereo not drawn) [1.0345]	3.34^[a]
COC(=O)C(NC(=O)c1sc(Cl)c(Cl)c1F)C1CC1 (stereo not drawn) [1.0346]	3.36^[a]
CCOC(=O)C1(NC(=O)c2sc(Cl)c(Cl)c2F)CCC1 [1.0347]	3.70^[a]
CCOC(=O)C(NC(=O)c1sc(Cl)c(Cl)c1F)C(C)C (stereo not drawn) [1.0348]	4.37^[a]
COC(=O)C(CC(F)F)NC(=O)c1sc(Cl)c(Cl)c1F (stereo not drawn) [1.0349]	3.19^[a]

SMILES	LogP
CCOC(=O)C(CC(C)C)NC(=O)c1sc(Cl)c(Cl)c1F (stereo not drawn) [1.0350]	4.63^[a]
CCOC(=O)C(CCSC)NC(=O)c1sc(Cl)c(Cl)c1F (stereo not drawn) [1.0351]	3.95^[a]
CCOC(=O)C(Cc1ccccc1)NC(=O)c1sc(Cl)c(Cl)c1F (stereo not drawn) [1.0352]	4.47^[a]
N#CCNC(=O)c1sc(Br)c(Br)c1C(F)F [1.0353]	2.54^[a]
COC(=O)CNC(=O)c1sc(Br)c(Br)c1C(F)F [1.0354]	2.66^[a]
CCOC(=O)CNC(=O)c1sc(Br)c(Br)c1C(F)F [1.0355]	3.01^[a]
COC(=O)C1(NC(=O)c2sc(Br)c(Br)c2C(F)F)CC1 [1.0356]	2.86^[a]
CCOC(=O)C(C)NC(=O)c1sc(Br)c(Br)c1C(F)F (stereo not drawn) [1.0357]	3.35^[a]
COC(=O)C(NC(=O)c1sc(Br)c(Br)c1C(F)F)C1CC1 (stereo not drawn) [1.0358]	3.37^[a]
CCOC(=O)C1(NC(=O)c2sc(Br)c(Br)c2C(F)F)CCC1 [1.0359]	3.67^[a]
CCOC(=O)C(NC(=O)c1sc(Br)c(Br)c1C(F)F)C(C)C (stereo not drawn) [1.0360]	4.16^[a]
COC(=O)C(CC(F)F)NC(=O)c1sc(Br)c(Br)c1C(F)F (stereo not drawn) [1.0361]	3.28^[a]
CCOC(=O)C(CC(C)C)NC(=O)c1sc(Br)c(Br)c1C(F)F (stereo not drawn) [1.0362]	4.45^[a]
CCOC(=O)C(CCSC)NC(=O)c1sc(Br)c(Br)c1C(F)F (stereo not drawn) [1.0363]	3.89^[a]
CCOC(=O)C(Cc1ccccc1)NC(=O)c1sc(Br)c(Br)c1C(F)F (stereo not drawn) [1.0364]	4.34^[a]
N#CCNC(=O)c1sc(Br)c(Br)c1C(F)(F)F [1.0365]	2.61^[a]
COC(=O)CNC(=O)c1sc(Br)c(Br)c1C(F)(F)F [1.0366]	2.71^[a]
CCOC(=O)CNC(=O)c1sc(Br)c(Br)c1C(F)(F)F [1.0367]	3.05^[a]
COC(=O)C1(NC(=O)c2sc(Br)c(Br)c2C(F)(F)F)CC1 [1.0368]	2.93^[a]
CCOC(=O)C(C)NC(=O)c1sc(Br)c(Br)c1C(F)(F)F (stereo not drawn) [1.0369]	3.35^[a]
CCOC(=O)C1(NC(=O)c2sc(Br)c(Br)c2C(F)(F)F)CC1 [1.0370]	3.26^[a]
COC(=O)C(NC(=O)c1sc(Br)c(Br)c1C(F)(F)F)C1CC1 (stereo not drawn) [1.0371]	3.37^[a]
CCOC(=O)C1(NC(=O)c2sc(Br)c(Br)c2C(F)(F)F)CCC1 [1.0372]	3.67^[a]
CCOC(=O)C(NC(=O)c1sc(Br)c(Br)c1C(F)(F)F)C(C)C (stereo not drawn) [1.0373]	4.09^[a]
